How the values were obtained:
[1] = compound: C1CC(C1)(C(=O)[O-])C(=O)[O-].N.N.[Pt+2] [Carboplatin]; details: max 10 µM
Outline: (§1)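 Cancer cell lines were dosed for 72 hours (final DMSO typically 0.2%) after 24 hours at 37°C and 5% CO2 in 1536-well plates containing 7.5 μl DMEM/F12 or RPMI with 10% FBS. Viability came from CellTiter-Glo 2.0 luminescence, scaled between blank-well and DMSO-well means, and dose responses were fitted to a two-parameter logistic curve with a non-linear mixed effects model. The single-agent IC50 was obtained from this fit.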

[2] = compound: C1CN(CCC1(C(=O)N[C@@H](CCO)C2=CC=C(C=C2)Cl)N)C3=NC=NC4=C3C=CN4 [AZD5363]; details: max 10 µM
Outline: as §1

[3] = compound: C=CCn1c(=O)c2cnc(Nc3ccc(N4CCN(C)CC4)cc3)nc2n1-c1cccc(C(C)(C)O)n1 [AZD1775]; details: max 3 µM
Outline: as §1

[4] = compound: CC(=O)Nc1cccc(-n2c(=O)n(C3CC3)c(=O)c3c(Nc4ccc(I)cc4F)n(C)c(=O)c(C)c32)c1 [Trametinib]; details: max 1 µM
Outline: as §1

[5] = compound: CC(=O)O[C@H]1C(=O)[C@@]2(C)[C@H]([C@H](OC(=O)c3ccccc3)[C@]3(O)C[C@H](OC(=O)[C@H](O)[C@@H](NC(=O)c4ccccc4)c4ccccc4)C(C)=C1C3(C)C)[C@]1(OC(C)=O)CO[C@@H]1C[C@@H]2O [Paclitaxel]; details: max 3 µM
Outline: as §1

[6] = compound: CC(=O)c1c(C)c2cnc(Nc3ccc(N4CCNCC4)cn3)nc2n(C2CCCC2)c1=O [Palbociclib]; details: max 10 µM
Outline: as §1

[7] = compound: CC(C)n1c(=O)n(C)c2cnc3cc(F)c(-c4ccc(OCCCN5CCCCC5)nc4)cc3c21 [AZD1390]; details: max 0.3 µM
Outline: as §1

[8] = compound: CC1(C)CCC(CN2CCN(c3ccc(C(=O)NS(=O)(=O)c4ccc(NCC5CCOCC5)c([N+](=O)[O-])c4)c(Oc4cnc5[nH]ccc5c4)c3)CC2)=C(c2ccc(Cl)cc2)C1 [Venetoclax]; details: max 1 µM
Outline: as §1

[9] = compound: CC1=C(C(=CC=C1)Cl)NC(=O)C2=CN=C(S2)NC3=CC(=NC(=N3)C)N4CCN(CC4)CCO [Dasatinib]; details: max 2 µM
Outline: as §1

[10] = compound: CC1=CN2[C@@H](C1)C=NC3=CC(=C(C=C3C2=O)OC)OCCCCCOC4=C(C=C5C(=C4)N=C[C@@H]6CC(=CN6C5=O)C)OC [SG3199]; details: max 0.001 µM
Outline: as §1

[11] = compound: CCN(CCO)CCCOc1ccc2c(Nc3cc(CC(=O)Nc4cccc(F)c4)[nH]n3)ncnc2c1 [AZD2811]; details: max 1 µM
Outline: as §1

[12] = compound: CCc1c2c(nc3ccc(O)cc13)-c1cc3c(c(=O)n1C2)COC(=O)[C@]3(O)CC [SN-38]; details: max 0.3 µM
Outline: as §1

[13] = compound: CN(C)CCCOc1ccc(-c2ccc3ncc4c(c3c2)n(C2CCOCC2)c(=O)n4C)cn1 [AZD0156]; details: max 3 µM
Outline: as §1

[14] = compound: CN(CC[C@H](CSC1=CC=CC=C1)NC2=C(C=C(C=C2)S(=O)(=O)NC(=O)C3=CC=C(C=C3)N4CCC(CC4)[C@H](C5=CC=CC=C5C6=CC=C(C=C6)Cl)O)S(=O)(=O)C(F)(F)F)CCO [AZD4320]; details: max 1 µM
Outline: as §1

[15] = compound: COc1cc(Nc2ncc3c(n2)-c2ccc(Cl)cc2C(c2c(F)cccc2OC)=NC3)ccc1C(=O)O [Alisertib]; details: max 10 µM
Outline: as §1

[16] = compound: COc1cc([C@@H]2c3cc4c(cc3[C@@H](O[C@@H]3O[C@@H]5CO[C@@H](C)O[C@H]5[C@H](O)[C@H]3O)[C@H]3COC(=O)[C@H]23)OCO4)cc(OC)c1O [Etoposide]; details: max 10 µM
Outline: as §1

[17] = compound: COc1cc2ncnc(Nc3ccc(F)c(Cl)c3)c2cc1OCCCN1CCOCC1 [Gefitinib]; details: max 10 µM
Outline: as §1

[18] = compound: COc1cccc(OCCCN)c1-c1cc(Nc2cnc(C#N)cn2)n[nH]1 [Prexasertib]; details: max 1 µM
Outline: as §1

[19] = compound: COc1cccc2c1C(=O)c1c(O)c3c(c(O)c1C2=O)C[C@@](O)(C(=O)CO)C[C@@H]3O[C@H]1C[C@H](N)[C@H](O)[C@H](C)O1 [Doxorubicin]; details: max 1 µM
Outline: as §1

[20] = compound: COc1nnc2ccc(N3CCC(c4ccc(OCCN5CCN(C)C(=O)[C@H]5C)cc4)CC3)nn12 [AZD5153]; details: max 1 µM
Outline: as §1

[21] = compound: CS(=O)(=O)CCNCc1ccc(-c2ccc3ncnc(Nc4ccc(OCc5cccc(F)c5)c(Cl)c4)c3c2)o1 [Lapatinib]; details: max 10 µM
Outline: as §1

[22] = compound: C[C@@H](Nc1cc(F)cc(F)c1)c1cc(C(=O)N(C)C)cc2c(=O)cc(N3CCOCC3)oc12 [AZD8186]; details: max 10 µM
Outline: as §1

[23] = compound: C[C@@H](Oc1cc(-c2cnn(C3CCNCC3)c2)cnc1N)c1c(Cl)ccc(F)c1Cl [Crizotinib]; details: max 10 µM
Outline: as §1

[24] = compound: C[C@@H](c1ccc2nccn2c1)n1nnc2ncc(-c3cnn(C)c3)nc21 [Savolitinib]; details: max 1 µM
Outline: as §1

[25] = compound: C[C@@H]1COCCN1C2=NC(=NC(=C2)C3(CC3)[S@](=N)(=O)C)C4=C5C=CNC5=NC=C4 [AZD6738]; details: max 10 µM
Outline: as §1

[26] = compound: Cc1c2c(nn1C)CSCc1cc(n(C)n1)CSc1cc(c3ccccc3c1)OCCCc1c(C(=O)O)n(C)c3c-2c(Cl)ccc13 [AZD5991]; details: max 1 µM
Outline: as §1

[27] = compound: Cc1cc2ncnn2cc1Nc1ncc2c(n1)n(C1CCOCC1)c(=O)n2C [AZD7648]; details: max 10 µM
Outline: as §1

[28] = compound: Cc1nc(-c2cn3c(n2)-c2ccc(-c4cnn(C(C)(C)C(N)=O)c4)cc2OCC3)n(C(C)C)n1 [Taselisib]; details: max 10 µM
Outline: as §1

[29] = compound: Cn1cnc2c(F)c(Nc3ccc(Br)cc3Cl)c(C(=O)NOCCO)cc21 [Selumetinib]; details: max 10 µM
Outline: as §1

[30] = compound: N#Cc1cnc(Nc2cc(NC[C@H]3CNCCO3)c(C(F)(F)F)cn2)cn1 [SRA737]; details: max 10 µM
Outline: as §1

[31] = compound: NC1(c2ccc(-c3nc4ccn5c(=O)[nH]nc5c4cc3-c3ccccc3)cc2)CCC1 [MK-2206]; details: max 10 µM
Outline: as §1

[32] = compound: Nc1ccn([C@@H]2O[C@H](CO)[C@@H](O)C2(F)F)c(=O)n1 [Gemcitabine]; details: max 0.3 µM
Outline: as §1

[33] = compound: O=C(Nc1ccc2[nH]nc(-c3ccncc3)c2c1)[C@@H]1CCN(CC(=O)N2CCN(c3ccc(-c4ncccn4)cc3)CC2)C1; details: max 5 µM
Outline: as §1

[34] = compound: O=C(c1cc(Cc2n[nH]c(=O)c3ccccc23)ccc1F)N1CCN(C(=O)C2CC2)CC1 [Olaparib]; details: max 10 µM
Outline: as §1

[35] = compound: O=c1[nH]cc(F)c(=O)[nH]1 [5-Fluorouracil]; details: max 20 µM
Outline: as §1

| Cell Line | IC50, cell viability 72 h [1] | IC50, cell viability 72 h [2] | IC50, cell viability 72 h [3] | IC50, cell viability 72 h [4] | IC50, cell viability 72 h [5] | IC50, cell viability 72 h [6] | IC50, cell viability 72 h [7] | IC50, cell viability 72 h [8] | IC50, cell viability 72 h [9] | IC50, cell viability 72 h [10] | IC50, cell viability 72 h [11] | IC50, cell viability 72 h [12] | IC50, cell viability 72 h [13] | IC50, cell viability 72 h [14] | IC50, cell viability 72 h [15] | IC50, cell viability 72 h [16] | IC50, cell viability 72 h [17] | IC50, cell viability 72 h [18] | IC50, cell viability 72 h [19] | IC50, cell viability 72 h [20] | IC50, cell viability 72 h [21] | IC50, cell viability 72 h [22] | IC50, cell viability 72 h [23] | IC50, cell viability 72 h [24] | IC50, cell viability 72 h [25] | IC50, cell viability 72 h [26] | IC50, cell viability 72 h [27] | IC50, cell viability 72 h [28] | IC50, cell viability 72 h [29] | IC50, cell viability 72 h [30] | IC50, cell viability 72 h [31] | IC50, cell viability 72 h [32] | IC50, cell viability 72 h [33] | IC50, cell viability 72 h [34] | IC50, cell viability 72 h [35] |
| --- | --- | --- | --- | --- | --- | --- | --- | --- | --- | --- | --- | --- | --- | --- | --- | --- | --- | --- | --- | --- | --- | --- | --- | --- | --- | --- | --- | --- | --- | --- | --- | --- | --- | --- | --- |
| Saos-2 (Osteosarcoma) | > 10000 nM | > 10000 nM | 1230 nM | > 1000 nM | 44.6 nM | > 10000 nM | > 300 nM | > 1000 nM | > 2000 nM | > 1 nM | 971 nM | 10.9 nM | > 3000 nM | > 1000 nM | 9260 nM | 3650 nM | > 10000 nM | 102 nM | 556 nM | 887 nM | > 10000 nM | > 10000 nM | 5110 nM | > 1000 nM | > 10000 nM | > 1000 nM | > 10000 nM | 3210 nM | > 10000 nM | > 10000 nM | > 10000 nM | 36.4 nM | > 5000 nM | > 10000 nM | > 20000 nM |
| WSU-DLCL2 (B-Cell Non-Hodgkin's Lymphoma) | > 10000 nM | 253 nM | 531 nM | > 1000 nM | 4.48 nM | 7440 nM | > 300 nM | > 1000 nM | > 2000 nM | > 1 nM | > 1000 nM | 5.96 nM | 2150 nM | 794 nM | 1640 nM | 730 nM | > 10000 nM | 18.8 nM | 53.9 nM | 55.9 nM | > 10000 nM | 5810 nM | 8080 nM | > 1000 nM | 2690 nM | 137 nM | > 10000 nM | 2700 nM | > 10000 nM | > 10000 nM | 1670 nM | 6.5 nM | > 5000 nM | > 10000 nM | > 20000 nM |
| YT (Other Blood Carcinomas) | > 10000 nM | > 10000 nM | 442 nM | > 1000 nM | 46.5 nM | 4040 nM | > 300 nM | > 1000 nM | > 2000 nM | > 1 nM | > 1000 nM | 4.13 nM | > 3000 nM | > 1000 nM | > 10000 nM | 374 nM | > 10000 nM | 26.8 nM | 511 nM | 196 nM | > 10000 nM | > 10000 nM | 8370 nM | > 1000 nM | 3170 nM | 49.4 nM | 6930 nM | 1790 nM | > 10000 nM | 4810 nM | > 10000 nM | 36.5 nM | > 5000 nM | > 10000 nM | 808 nM |

— the supplement of paper PMC11061612
